Source: US20200102353A1, “HUMAN ENDOGENOUS RETROVIRAL PROTEIN” (priority 2017, published 2020)

Assays:
[1] = test system: HEMO release in the supernatant; assay: Inhibition of HEMO release (shedding) in supernatant of phCMV-HEMO transfected 293T cells, Western blot; format: cell-based, human; conditions: 293T cells transfected with phCMV-HEMO, treated 3 days, BATIMASTAT 0.1 to 10 μM, MARIMASTAT 0.1 to 10 μM, GM6001 1 to 50 μM
Protocol: For treatment with metalloprotease inhibitors, 5×10^5 293T cells were seeded in 6-well dishes with 2 mL/well of culture medium. One day after seeding, cells were transiently transfected using 1.5 μg phCMV-HEMO plasmid and 4.5 μL Lipofectamine LTX (THERMOFISHER) per well. One day post-transfection, cells were incubated with culture medium supplemented with the indicated concentrations of metalloprotease inhibitors (CALBIOCHEM): BATIMASTAT (0.1 to 10 μM), MARIMASTAT (0.1 to 10 μM) or GM6001 (1 to 50 μM). Medium with inhibitors was replenished for 2 other days, and supernatants were collected and filtered through 0.45 μm MILLIPORE filters one day later. Cells were harvested the same day for protein analysis.
Samples, cell supernatants or cell lysates were analyzed by SDS/PAGE on gradient precast gels (NuPAGE NOVEX 4-12% Bis-Tris gels, LIFE TECHNOLOGIES), and transfer onto nitrocellulose membranes using a semi-dry transfer system. […] Proteins were detected by using an enhanced chemiluminescence system (ECL, PIERCE).

HEMO gene = assay: Effect of DNA demethylation on HEMO gene expression, RT-qPCR; format: cell-based, human; conditions: for dose at which HEMO transcripts were detectable by qRT-PCR: 3-day treatment, doses 0.1 to 5 μM
Protocol: For treatment with 5-Aza-2′-deoxycytidine (5-Aza-dC; SIGMA-ALDRICH), 2×10^5 BeWo and 293T cells were plated in 6-well dishes. Doses ranging from 0.1 to 5 μM of 5-Aza-dC were then added to the culture for 3 days, with fresh medium each day. Cells were harvested for RNA extraction one day later.
Total RNAs from human tissues and cells were either purchased from ZYAGEN (San Diego), or isolated using the RNAeasy Isolation Kit (QIAGEN) according to the manufacturer's instructions, and treated with Dnase I (AMBION). Reverse transcription was performed with 1 μg of RNA using the MLV reverse-transcriptase (APPLIED BIOSYSTEMS). Real-time quantitative PCR was carried out with 5 μl of diluted (1:20) cDNA in a final volume of 25 μl by using SYBR green PCR master mix (QIAGEN). qPCR was carried out with an ABI Prism 7000 sequence detection system, using primers listed in Table 4 above. Transcript levels were normalized relative to the amount of a housekeeping gene (RPLPO or G6PD) mRNA. Samples were assayed in duplicate.

| SMILES | HEMO release in the supernatant [1] | dose at which HEMO transcripts were detectable by qRT-PCR (HEMO gene; 293T cells) [µM] | dose at which HEMO transcripts were detectable by qRT-PCR (HEMO gene; BeWo cells) [µM] | HEMO gene transcript level after treatment (HEMO gene; CaCo-2 cells (HEMO-expressing), similar 5-Aza-dC treatment) |
| --- | --- | --- | --- | --- |
| CNC(=O)[C@@H](NC(=O)[C@H](CC(C)C)[C@H](O)C(=O)NO)C(C)(C)C [MARIMASTAT] | clearly inhibited HEMO release in the supernatant |  |  |  |
| Nc1ncn([C@H]2C[C@H](O)[C@@H](CO)O2)c(=O)n1 [5-Aza-dC, 5-Aza-2′-deoxycytidine] |  | 5 | 0.1 | not further amplified |
| CNC(=O)[C@H](Cc1c[nH]c2ccccc12)NC(=O)[C@@H](CC(=O)NO)CC(C)C [GM6001] | clearly inhibited HEMO release in the supernatant |  |  |  |
